In one data set the target is T1, COX-2 (Homo sapiens, UniProt P35354).
T1 construct: purchased Cayman No.547
T1 sequence (P35354 18-604): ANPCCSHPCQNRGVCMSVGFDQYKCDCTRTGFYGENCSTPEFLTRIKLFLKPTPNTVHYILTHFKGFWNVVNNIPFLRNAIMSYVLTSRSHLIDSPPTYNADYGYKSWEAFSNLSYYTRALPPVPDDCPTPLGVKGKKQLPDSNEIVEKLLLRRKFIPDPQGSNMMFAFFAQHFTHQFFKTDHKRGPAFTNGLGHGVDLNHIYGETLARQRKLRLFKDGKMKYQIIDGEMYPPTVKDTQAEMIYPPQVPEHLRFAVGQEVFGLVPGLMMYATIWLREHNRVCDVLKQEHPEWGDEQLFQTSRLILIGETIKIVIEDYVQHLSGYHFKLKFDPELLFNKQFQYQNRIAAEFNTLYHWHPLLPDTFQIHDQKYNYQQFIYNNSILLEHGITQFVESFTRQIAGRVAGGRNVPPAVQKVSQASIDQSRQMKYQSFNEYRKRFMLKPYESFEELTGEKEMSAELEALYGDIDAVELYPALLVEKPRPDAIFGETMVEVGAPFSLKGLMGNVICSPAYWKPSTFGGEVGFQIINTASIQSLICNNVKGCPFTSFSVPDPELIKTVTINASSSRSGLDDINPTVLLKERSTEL
In words: In vitro COX-2 enzyme inhibitory assay (Cayman kit). In kind it is biochemical. The following applies: for IC50: mean ± SD, n = 3. The method, then:
(§1) The ability to inhibit COX-1 and COX-2 enzymes was evaluated as previously reported[35],[36], using COX-1 Cayman human enzyme inhibitory assay kit (No.548, USA), COX-2 Cayman human enzyme inhibitory assay kit (No.547, USA) and Tecan Spark reader. […] The % Relative Inhibition was calculated as follows: [drawing 1]

The next data set concerns the target T2, COX-1 (Homo sapiens, UniProt P23219).
T2 construct: purchased Cayman No.548
The data set is described as follows: In vitro COX-1 enzyme inhibitory assay (Cayman kit). Type of data set: biochemical. To be noted: mean ± SD, n = 3. The method, then:
as §1

In another data set the target is AChE (Homo sapiens, UniProt P22303). The data set is described as follows: biochemical. The following applies: for Inhibitory activity against AChE: concentrations up to 100 µM.
Sequence of AChE (P22303 32-614): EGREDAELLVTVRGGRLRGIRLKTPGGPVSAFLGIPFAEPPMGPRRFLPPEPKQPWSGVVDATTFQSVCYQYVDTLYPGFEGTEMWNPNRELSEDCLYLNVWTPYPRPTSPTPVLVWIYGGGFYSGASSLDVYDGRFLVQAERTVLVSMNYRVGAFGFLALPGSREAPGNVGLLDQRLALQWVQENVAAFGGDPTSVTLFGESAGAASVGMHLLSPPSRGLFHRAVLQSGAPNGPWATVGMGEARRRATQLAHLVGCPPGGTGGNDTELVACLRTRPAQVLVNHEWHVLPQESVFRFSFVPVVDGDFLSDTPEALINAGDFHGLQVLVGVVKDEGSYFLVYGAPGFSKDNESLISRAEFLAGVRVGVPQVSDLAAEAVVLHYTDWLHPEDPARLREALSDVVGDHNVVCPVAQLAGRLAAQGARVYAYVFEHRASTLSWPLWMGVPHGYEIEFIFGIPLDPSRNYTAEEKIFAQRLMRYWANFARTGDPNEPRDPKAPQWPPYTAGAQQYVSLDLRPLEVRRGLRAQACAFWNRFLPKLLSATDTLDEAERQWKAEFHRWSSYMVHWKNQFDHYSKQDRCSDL
The subject of data set [1] is SH-SY5Y cells. The data set is described as follows: Protection against H2O2 induced-neurotoxicity. Type of data set: cell-based, human. The following applies: 150 μM H2O2; for Neuroprotective activity against H2O2: 6.25, 12.5, 25 μM. The method, then: H2O2 concentration that caused 50% reduction in cell viability was evaluated as previously reported. Then the cultured cells (2 × 10^4 cells/well) were incubated with test samples (at non-cytotoxic concentrations: 6.25, 12.5, 25 μM) or catechin as a positive control (at non-cytotoxic concentrations: 6.25, 12.5, 25, 50, 100 μM). Lastly, the WST-1 reagent was used to evaluate the cell viability as reported.

Data set [2] has as its system SH-SY5Y cells. In words: Determination of non-cytotoxic concentrations (WST-1 cell viability). Type of data set: cell-based. The following applies: for Concentration showing cytotoxic effect on SH-SY5Y cells: tested 6.25-200 μM; for Non-cytotoxic concentration on SH-SY5Y cells: human. The method, then:
In this assay, the non-toxic concentrations of the tested samples to SH-SY5Y cells, along with catechin[58] and epicatechin-3-gallate[59] as a positive controls were used for the evaluation of the neuroprotective activity. […]. Cell viability was then assessed using a previously described method.

Data set [3] has as its system SH-SY5Y cells. In words: Protection against Aβ1-42 induced-neurotoxicity. In kind it is cell-based, human. The following applies: only at 50 and 100 μM; Aβ1-42 25 μM. Here is the method: Finally, evaluation of cell viability was conducted.
The mark [4] stands for this setting: mean ± SD, n = 3, read-out: AChE inhibition IC50.

Like-named read-outs stand apart in the source and are kept apart here.

The results in this text go back to publication PMC12297533 (Scientific Reports, 2025).

T2 sequence (P23219 24-599): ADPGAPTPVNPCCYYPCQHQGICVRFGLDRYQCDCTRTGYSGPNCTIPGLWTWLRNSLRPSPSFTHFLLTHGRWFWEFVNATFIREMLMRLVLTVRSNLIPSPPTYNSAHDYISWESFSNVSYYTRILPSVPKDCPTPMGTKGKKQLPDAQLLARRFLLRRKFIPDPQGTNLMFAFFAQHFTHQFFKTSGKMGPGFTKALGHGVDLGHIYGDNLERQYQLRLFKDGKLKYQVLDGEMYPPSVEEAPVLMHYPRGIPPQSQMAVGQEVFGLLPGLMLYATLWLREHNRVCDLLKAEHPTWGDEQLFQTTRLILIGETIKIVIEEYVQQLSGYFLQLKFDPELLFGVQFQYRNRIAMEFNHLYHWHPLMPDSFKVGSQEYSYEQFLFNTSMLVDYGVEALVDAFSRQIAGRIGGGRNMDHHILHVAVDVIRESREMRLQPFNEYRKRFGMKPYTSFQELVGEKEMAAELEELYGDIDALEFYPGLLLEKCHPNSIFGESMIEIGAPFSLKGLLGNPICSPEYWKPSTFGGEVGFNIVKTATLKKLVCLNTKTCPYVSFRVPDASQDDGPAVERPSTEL

Consider `CC(C)=CCC[C@](C)(O)[C@@H]1CC=C(C(=O)O)CC1` [Metabolite 3, Hamanasic acid A], for which the “COX-2 selective index S.I = IC50 COX-1/IC50 COX-2” value at COX-2 is given as 4.362. For the same compound, the figures for the IC50 at COX-2, against COX-1 and on AChE (setting [4]) were 6.45 ± 0.24 µM, 28.1 ± 1.74 µM and more than 100 µM, respectively. The compound also gave an inhibition at 100 µM against AChE (at 100 µM) of 20%. Also, the “Neuroprotective activity against H2O2” value in the data set on SH-SY5Y cells [1] is recorded as “didn’t show any neuroprotective activity”.

`CC1=CCC(C(C)(O)CCC(O)C(C)(C)O)CC1` (stereo not drawn) [Metabolite 2, 10β,11-dihydroxy-α-bisabolol]: the “COX-2 selective index S.I = IC50 COX-1/IC50 COX-2” value at COX-2 came out at 4.093. The half-inhibitory concentration (IC50) on COX-2 was 17.3 ± 0.66 µM; at COX-1 it was 71 ± 4.4 µM; at AChE (setting [4]), 12.9 µM.

As for `O.Oc1cc(O)c2c(c1)O[C@H](c1ccc(O)c(O)c1)[C@@H](O)C2` [catechin, reference compound], the “Concentration showing cytotoxic effect on SH-SY5Y cells” value with SH-SY5Y cells [2] stood at 200 µM. In addition, in the data set with SH-SY5Y cells [1] (only at 50 and 100 μM), the “Neuroprotective effect against H2O2” value is “exhibited neuroprotective effects”.

Consider `CC(C)(O)C(O)CCC(C)(O)C1CC=C(CO)CC1` (stereo not drawn) [Metabolite 6, 10β,11,15-trihydroxy-α-bisabolol], for which, on COX-2, the “COX-2 selective index S.I = IC50 COX-1/IC50 COX-2” value came out at 12.58. Moreover, the half-inhibitory concentration (IC50) against COX-2 was 5.39 ± 0.18 µM; at COX-1, 67.8 ± 2.28 µM; on AChE (setting [4]), more than 100 µM. Moreover, in the data set on SH-SY5Y cells [2], the “Non-cytotoxic concentration on SH-SY5Y cells” value is not above 12.5 µM. Further, the “Inhibitory activity against AChE” value at AChE is listed as “no inhibitory activity”.

For `CC(C)=CCCC(C)(O)C1CC=C(C)CC1` (stereo not drawn) [α-Bisabolol, (-)-α-bisabolol, reference compound], on COX-2, the “COX-2 selective index S.I = IC50 COX-1/IC50 COX-2” value stood at 6.889 and the IC50 stood at 2.92 ± 0.13 µM. The compound also displayed an IC50 on COX-1 of 20.1 ± 1.19 µM. For the same compound, the “Non-cytotoxic concentration on SH-SY5Y cells” value with SH-SY5Y cells [2] is not above 25 µM. For the same compound, at AChE, the IC50 is more than 100 µM and the “Inhibitory activity against AChE” value is “no inhibitory activity”.

As for `COC(=O)C1=CCC(C(C)CCC2OC2(C)C)CC1` (stereo not drawn) [Metabolite 5, 7-dehydroxy-10,11-epoxy-3-methylcarboxy-α-bisabolol], on COX-2, the “COX-2 selective index S.I = IC50 COX-1/IC50 COX-2” value turned out to be 6.711 and the IC50 amounted to 2.51 ± 0.09 µM. This compound also came in with an IC50 against COX-1 of 16.8 ± 1.04 µM. Moreover, on AChE, the half-maximal inhibitory concentration (IC50) was more than 100 µM and the “Inhibitory activity against AChE” value is recorded as “no inhibitory activity”. The “Neuroprotective activity against H2O2” value in the data set with SH-SY5Y cells [1] is recorded as “didn’t show any neuroprotective activity”.

As to epicatechin-3-gallate, the “Neuroprotection against Aβ1-42” value in the data set with SH-SY5Y cells [3] was “exhibited neuroprotection”. The “Concentration showing cytotoxic effect on SH-SY5Y cells” value in the data set with SH-SY5Y cells [2] amounted to 200 µM.

Regarding `CC(C)=CCCC(C)(O)C1CCC(C)CC1` (stereo not drawn) [Metabolite 4, 2,3-dihydro-α-bisabolol], the “COX-2 selective index S.I = IC50 COX-1/IC50 COX-2” value at COX-2 was found to be 8.598. For the same compound, the IC50 against COX-2 was 4.11 ± 0.15 µM; against COX-1, 35.3 ± 2.18 µM; on AChE (setting [4]), more than 100 µM. On AChE, the “Inhibitory activity against AChE” value is listed as “no inhibitory activity”.
